Assay results reported in the supplement of paper PMC13207355.

Experiments:
Details in all cases: exposure time: 72 h
[1] = system: FT3469 (normal neural stem cell line); assay: phenotypic distance (Euclidean, principal components) from DMSO controls (arbitrary units); higher = stronger morphological change
[2] = system: E21 (patient-derived glioblastoma stem cells of mesenchymal subtype); assay: as above
[3] = system: E34 (patient-derived glioblastoma stem cells of proneural subtype); assay: as above
[4] = system: E28 (patient-derived glioblastoma stem cells of classical subtype); assay: as above
[5] = system: E13 (patient-derived glioblastoma stem cells of classical subtype); assay: as above
[6] = system: E31 (patient-derived glioblastoma stem cells of proneural subtype); assay: as above
[7] = system: E57 (patient-derived glioblastoma stem cells of mesenchymal subtype); assay: as above
[8] = system: FT3469; assay: surviving fraction (nuclei count normalised to DMSO); higher = more cells surviving (less toxic)
[9] = system: E21; assay: as above
[10] = system: E34; assay: as above
[11] = system: E28; assay: as above
[12] = system: E13; assay: as above
[13] = system: E31; assay: as above
[14] = system: E57; assay: as above
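For phenotypic distance (Euclidean, principal components) from DMSO controls in this document: cell Painting imaging in 384-well plates, CellProfiler features reduced to at least 20 principal components, Euclidean distance versus same-plate DMSO vehicle wells (0.1% v/v), median over six images per well.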
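For surviving fraction (nuclei count normalised to DMSO) in this document: nuclei counted by high-content imaging of Hoechst-stained cells in laminin-coated 384-well plates, relative to 0.1% DMSO vehicle wells, with staurosporine as cell-death control.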

Cc1ccc2c(c1)C1(CCN(CCc3nc(-c4ccccc4)oc3C)CC1)OC(=O)N2
Details	phenotypic distance	surviving fraction
[1], 4.1 nM	1.5	–
[1], 12.3 nM	0.887	–
[1], 37 nM	0.645	–
[1], 111.1 nM	1.16	–
[1], 333.3 nM	0.543	–
[1], 1000 nM	0.575	–
[1], 3000 nM	0.661	–
[2], 4.1 nM	1.42	–
[2], 12.3 nM	0.605	–
[2], 37 nM	4.58	–
[2], 111.1 nM	0.716	–
[2], 333.3 nM	0.433	–
[2], 1000 nM	0.642	–
[2], 3000 nM	1.29	–
[3], 4.1 nM	0.895	–
[3], 12.3 nM	2	–
[3], 37 nM	0.587	–
[3], 111.1 nM	0.749	–
[3], 333.3 nM	0.998	–
[3], 1000 nM	0.765	–
[3], 3000 nM	0.942	–
[4], 4.1 nM	0.761	–
[4], 12.3 nM	1.33	–
[4], 37 nM	0.46	–
[4], 111.1 nM	0.636	–
[4], 333.3 nM	0.695	–
[4], 1000 nM	0.667	–
[4], 3000 nM	0.74	–
[5], 4.1 nM	2.72	–
[5], 12.3 nM	2.97	–
[5], 37 nM	1.42	–
[5], 111.1 nM	0.52	–
[5], 333.3 nM	0.547	–
[5], 1000 nM	0.819	–
[5], 3000 nM	0.711	–
[6], 4.1 nM	1.24	–
[6], 12.3 nM	0.61	–
[6], 37 nM	0.972	–
[6], 111.1 nM	0.485	–
[6], 333.3 nM	0.605	–
[6], 1000 nM	0.491	–
[6], 3000 nM	0.687	–
[7], 4.1 nM	0.955	–
[7], 12.3 nM	0.495	–
[7], 37 nM	0.64	–
[7], 111.1 nM	0.513	–
[7], 333.3 nM	0.49	–
[7], 1000 nM	0.453	–
[7], 3000 nM	0.766	–
[8], 4.1 nM	–	0.873
[8], 12.3 nM	–	1.15
[8], 37 nM	–	1.04
[8], 111.1 nM	–	0.795
[8], 333.3 nM	–	1.1
[8], 1000 nM	–	1.03
[8], 3000 nM	–	0.991
[9], 4.1 nM	–	0.932
[9], 12.3 nM	–	0.961
[9], 37 nM	–	0.956
[9], 111.1 nM	–	1.07
[9], 333.3 nM	–	0.988
[9], 1000 nM	–	0.923
[9], 3000 nM	–	0.891
[10], 4.1 nM	–	0.851
[10], 12.3 nM	–	1.03
[10], 37 nM	–	0.875
[10], 111.1 nM	–	0.878
[10], 333.3 nM	–	1.17
[10], 1000 nM	–	1.07
[10], 3000 nM	–	1.05
[11], 4.1 nM	–	1.07
[11], 12.3 nM	–	0.977
[11], 37 nM	–	1.11
[11], 111.1 nM	–	0.99
[11], 333.3 nM	–	1.11
[11], 1000 nM	–	0.938
[11], 3000 nM	–	1.1
[12], 4.1 nM	–	0.988
[12], 12.3 nM	–	1.09
[12], 37 nM	–	1.12
[12], 111.1 nM	–	1.07
[12], 333.3 nM	–	1.12
[12], 1000 nM	–	1.11
[12], 3000 nM	–	0.943
[13], 4.1 nM	–	1.04
[13], 12.3 nM	–	0.99
[13], 37 nM	–	1.01
[13], 111.1 nM	–	0.979
[13], 333.3 nM	–	1.04
[13], 1000 nM	–	0.996
[13], 3000 nM	–	0.955
[14], 4.1 nM	–	1.05
[14], 12.3 nM	–	1.03
[14], 37 nM	–	0.923
[14], 111.1 nM	–	1.01
[14], 333.3 nM	–	1.04
[14], 1000 nM	–	0.967
[14], 3000 nM	–	1.02

CCCCCCCCCCCCCC(=O)O[C@@H]1[C@@H](C)[C@@]2(O)[C@@H](C=C(CO)C[C@]3(O)C(=O)C(C)=C[C@@H]23)[C@@H]2C(C)(C)[C@]12OC(C)=O [Phorbol 12-myristate 13-acetate]
Details	phenotypic distance	surviving fraction
[1], 4.1 nM	3.13	–
[1], 12.3 nM	2.56	–
[1], 37 nM	3.38	–
[1], 111.1 nM	2.45	–
[1], 333.3 nM	1.86	–
[1], 1000 nM	2.16	–
[1], 3000 nM	4.11	–
[2], 4.1 nM	2.4	–
[2], 12.3 nM	2.57	–
[2], 37 nM	2.24	–
[2], 111.1 nM	2.1	–
[2], 333.3 nM	2.01	–
[2], 1000 nM	1.76	–
[2], 3000 nM	6.77	–
[3], 4.1 nM	4.26	–
[3], 12.3 nM	4.21	–
[3], 37 nM	3.53	–
[3], 111.1 nM	3.9	–
[3], 333.3 nM	2.78	–
[3], 1000 nM	2.96	–
[3], 3000 nM	4.34	–
[4], 4.1 nM	2.11	–
[4], 12.3 nM	1.89	–
[4], 37 nM	1.72	–
[4], 111.1 nM	1.44	–
[4], 333.3 nM	1.52	–
[4], 1000 nM	1.21	–
[4], 3000 nM	4.49	–
[5], 4.1 nM	2.62	–
[5], 12.3 nM	2.5	–
[5], 37 nM	2.61	–
[5], 111.1 nM	2.82	–
[5], 333.3 nM	1.86	–
[5], 1000 nM	2.26	–
[5], 3000 nM	2.58	–
[6], 4.1 nM	3.22	–
[6], 12.3 nM	3.36	–
[6], 37 nM	2.74	–
[6], 111.1 nM	1.67	–
[6], 333.3 nM	1.98	–
[6], 1000 nM	1.94	–
[6], 3000 nM	6.13	–
[7], 4.1 nM	7.04	–
[7], 12.3 nM	6.41	–
[7], 37 nM	5.79	–
[7], 111.1 nM	8.21	–
[7], 333.3 nM	6.38	–
[7], 1000 nM	6.18	–
[7], 3000 nM	11.1	–
[8], 4.1 nM	–	0.75
[8], 12.3 nM	–	0.728
[8], 37 nM	–	0.729
[8], 111.1 nM	–	0.701
[8], 333.3 nM	–	0.832
[8], 1000 nM	–	0.791
[8], 3000 nM	–	0.571
[9], 4.1 nM	–	0.677
[9], 12.3 nM	–	0.88
[9], 37 nM	–	0.786
[9], 111.1 nM	–	0.68
[9], 333.3 nM	–	0.75
[9], 1000 nM	–	0.775
[9], 3000 nM	–	0.0234
[10], 4.1 nM	–	0.524
[10], 12.3 nM	–	0.516
[10], 37 nM	–	0.618
[10], 111.1 nM	–	0.488
[10], 333.3 nM	–	0.688
[10], 1000 nM	–	0.48
[10], 3000 nM	–	0.478
[11], 4.1 nM	–	0.75
[11], 12.3 nM	–	0.65
[11], 37 nM	–	0.725
[11], 111.1 nM	–	0.795
[11], 333.3 nM	–	0.815
[11], 1000 nM	–	0.668
[11], 3000 nM	–	0.383
[12], 4.1 nM	–	0.681
[12], 12.3 nM	–	0.64
[12], 37 nM	–	0.728
[12], 111.1 nM	–	0.596
[12], 333.3 nM	–	0.708
[12], 1000 nM	–	0.576
[12], 3000 nM	–	0.47
[13], 4.1 nM	–	1.07
[13], 12.3 nM	–	1.06
[13], 37 nM	–	1.23
[13], 111.1 nM	–	1.01
[13], 333.3 nM	–	1.07
[13], 1000 nM	–	0.994
[13], 3000 nM	–	0.0149
[14], 4.1 nM	–	0.331
[14], 12.3 nM	–	0.32
[14], 37 nM	–	0.374
[14], 111.1 nM	–	0.233
[14], 333.3 nM	–	0.369
[14], 1000 nM	–	0.367
[14], 3000 nM	–	0.108
